Data taken from ChEMBL document CHEMBL1138722, “3-(2-Methoxytetrahydrofuran-2-yl)pyrazoles: a novel class of potent, selective cyclooxygenase-2 (COX-2) inhibitors” (Bioorg Med Chem Lett, 2004).

Assays:
[1] = target: T1, Prostaglandin G/H synthase 1 (Homo sapiens, UniProt P23219); experiment: In vitro inhibition of Prostaglandin G/H synthase 1 in human whole blood at 100 uM; assay type: tissue-based
[2] = target: T2, Prostaglandin G/H synthase 2 (Homo sapiens) (UniProt P35354); details: Blood, at 10 µM
T2 sequence (whole entry): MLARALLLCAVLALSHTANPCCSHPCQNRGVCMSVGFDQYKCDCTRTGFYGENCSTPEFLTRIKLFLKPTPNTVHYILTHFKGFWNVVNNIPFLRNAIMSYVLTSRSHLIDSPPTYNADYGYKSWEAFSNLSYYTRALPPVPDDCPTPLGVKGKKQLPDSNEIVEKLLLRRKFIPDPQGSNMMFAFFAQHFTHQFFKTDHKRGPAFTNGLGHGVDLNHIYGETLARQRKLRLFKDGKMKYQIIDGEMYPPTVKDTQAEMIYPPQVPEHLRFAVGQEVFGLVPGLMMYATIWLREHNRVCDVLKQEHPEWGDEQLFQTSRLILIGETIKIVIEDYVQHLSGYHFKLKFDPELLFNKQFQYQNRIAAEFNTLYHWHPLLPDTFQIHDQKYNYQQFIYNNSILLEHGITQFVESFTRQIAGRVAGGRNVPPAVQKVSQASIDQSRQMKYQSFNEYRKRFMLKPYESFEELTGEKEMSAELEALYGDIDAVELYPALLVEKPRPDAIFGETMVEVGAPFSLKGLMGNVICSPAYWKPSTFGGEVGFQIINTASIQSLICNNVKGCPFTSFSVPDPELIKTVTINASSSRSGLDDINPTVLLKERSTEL
Description: In vitro inhibition of Prostaglandin G/H synthase 2 in human whole blood at 10 uM

[3] = target: T2, Prostaglandin G/H synthase 2 (Homo sapiens); details: Blood, at 1 µM
Description: In vitro inhibition of Prostaglandin G/H synthase 2 in human whole blood at 1 uM

[4] = target: T1, Prostaglandin G/H synthase 1; experiment: In vitro inhibition of Prostaglandin G/H synthase 1 in human whole blood; assay type: tissue-based
[5] = target: T3, Prostaglandin G/H synthase 2 (Homo sapiens, UniProt P35354); experiment: In vitro inhibition of Prostaglandin G/H synthase 2 in human whole blood; assay type: tissue-based
T3 sequence (P35354 whole entry): T2 sequence (whole entry)

T1 sequence (P23219 whole entry): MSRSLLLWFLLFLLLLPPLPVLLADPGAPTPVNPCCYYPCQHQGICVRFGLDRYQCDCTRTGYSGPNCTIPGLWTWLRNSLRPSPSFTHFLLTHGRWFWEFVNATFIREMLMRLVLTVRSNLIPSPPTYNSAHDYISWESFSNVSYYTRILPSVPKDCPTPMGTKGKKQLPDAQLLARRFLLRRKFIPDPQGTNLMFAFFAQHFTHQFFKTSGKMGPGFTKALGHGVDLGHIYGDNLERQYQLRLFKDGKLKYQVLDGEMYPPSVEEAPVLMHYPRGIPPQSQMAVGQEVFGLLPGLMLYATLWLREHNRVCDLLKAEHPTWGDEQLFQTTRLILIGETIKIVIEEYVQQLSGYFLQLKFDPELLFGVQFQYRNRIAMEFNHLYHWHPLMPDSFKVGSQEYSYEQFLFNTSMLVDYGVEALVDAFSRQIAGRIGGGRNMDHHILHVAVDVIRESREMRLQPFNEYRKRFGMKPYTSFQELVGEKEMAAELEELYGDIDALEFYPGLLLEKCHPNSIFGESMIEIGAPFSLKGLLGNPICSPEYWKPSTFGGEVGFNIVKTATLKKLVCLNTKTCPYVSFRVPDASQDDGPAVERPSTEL

Row | inhibition [1] | inhibition [2] | inhibition [3] | IC50 [4] | IC50 [5] | SMILES
1 | 60% | 80% | 25% |  |  | COC1(c2cc(-c3ccc(S(C)(=O)=O)cc3)n(-c3ccc(Cl)cc3)n2)CCCO1 (stereo not drawn)
2 | 55% | 90% | 55% | > 100 µM | 1.2 µM | COC1(c2cc(-c3ccc(S(C)(=O)=O)cc3)n(-c3ccc(C)cc3)n2)CCCO1 (stereo not drawn)

The next lines start with the compound.

Row | SMILES | inhibition [1] | inhibition [2] | inhibition [3] | IC50 [4] | IC50 [5]
3 | COC1(c2cc(-c3ccc(S(C)(=O)=O)cc3)n(-c3ccc(Br)cc3)n2)CCCO1 (stereo not drawn) | 72% | 84% | 13% |  | 
4 | COC1(c2cc(-c3ccc(S(C)(=O)=O)cc3)n(-c3ccccc3)n2)CCCO1 (stereo not drawn) | 20% | 65% | 30% |  | 
5 | COC1(c2cc(-c3ccc(S(C)(=O)=O)cc3)n(-c3ccc(C#N)cc3)n2)CCCO1 (stereo not drawn) | 0% | 25% | 30% |  | 
6 | COC1(c2cc(-c3ccc(S(C)(=O)=O)cc3)n(-c3ccc(F)cc3)n2)CCCO1 (stereo not drawn) | 25% | 75% | 40% |  | 
7 | COC1(c2cc(-c3ccc(S(C)(=O)=O)cc3)n(-c3ccc(C(F)(F)F)cc3)n2)CCCO1 (stereo not drawn) | 50% | 70% | 25% |  | 
